{"source": "patent US20140057877A1", "about": "“Therapeutic polyamine compositions and their synthesis” (priority 2002, published 2014)", "key": {"[1]": {"system": "E. coli (GM 7359) alkA tag E. coli mutant", "experiment": "Bacterial survival, toxin streptozotocin and antidotes", "conditions": "60 minutes", "procedure": "(§2) Bacteria were inoculated and cultured in nutrient agar for eighteen hours, using a shaking incubator at 140 r.p.m and 35° C. Medium contained 10 mM HEPES buffer at pH 7. Cells were centrifuged twice in Sorval RC-5 centrifuge 12,000 r.pm.×15 minutes at 4° C. and washed twice in 10 uM HEPES buffer. The resuspended cells were counted using a Hemocrit and diluted to a level of 5×10^1 cells per ml in 10 μM HEPES. The cells, the following toxins; methyl viologen (paraquat), methyl viologen (MPP^+), rotenone, daizoxide, streptozotocin and alloxan, and antidotes were added, reaching final volumes of 1 ml in Eppendorf tubes and placed on a rotator at room temperature. 10 μM diethylenetriaminepentaacetic acid was added to the samples to terminate the reactions at the specified times of either twenty or sixty minutes. 300 μL of cells were plated on Petri plates containing nutrient agar and incubated at 35° C. overnight. Colonies were counted after 20 hours. Percentage survival as compared with culture controls is calculated from the means of triplicates in each experimental group."}, "[2]": {"experiment": "pKa by potentiometric titration", "assay_type": "physicochemical", "conditions": "aqueous solution, ionic strength 0.10, 25° C.", "method": "PKa's were determined by standard potentiometric titration methods in aqueous solution with an ionic strength of 0.10 at 25° C. Values are reported as log K values of the equilibrium constant."}, "[3]": {"experiment": "Oil water partition coefficients (octanol/water, HPLC)", "assay_type": "physicochemical", "conditions": "for lipid water partitioning, in words: passage through gastrointestinal barrier and blood brain barrier", "method": "Partition coefficients were determined by dissolving the compound in a 1:1 mixture of octanol/water and shaking the solution for 12 hours. HPLC was used to determine the partition coefficient. The reported values are the log of the octanol/water partition"}, "[4]": {"system": "E. coli (GM 7359) alkA tag E. coli mutant", "conditions": "60 minutes", "procedure": "as §2"}, "[5]": {"system": "M. Luteus (ATCC 499732)", "experiment": "Bacterial survival, toxin diazoxide and antidotes", "procedure": "as §2"}, "[6]": {"system": "E. coli (GM 7359) alkA tag E. coli mutant", "conditions": "60 minutes", "remark": "listed apart in the source", "procedure": "as §2"}, "[7]": {"system": "S. aureus (ATCC 29213)", "experiment": "Bacterial survival, toxin diazoxide and antidotes", "assay_type": "cell-based", "conditions": "60 minutes", "method": "(§1) Medium contained 10 mM HEPES buffer at pH 7. […] Colonies were counted after 20 hours."}, "[8]": {"conditions": "cited from earlier work"}, "[9]": {"system": "MPTP induced dopamine loss", "conditions": "previously reported; cited from earlier work"}, "[10]": {"system": "S. aureus (ATCC 29213)", "assay_type": "cell-based", "method": "as §1"}, "[11]": {"system": "E. coli (ATCC 35150)", "assay_type": "cell-based", "conditions": "60 minutes", "method": "as §1"}, "[12]": {"conditions": "0.15 mM Diazoxide + 2.5 uM antidote"}, "[13]": {"conditions": "0.15 mM Diazoxide + 5 uM antidote"}, "[14]": {"conditions": "1:1 octanol/water, shaken 12 hours, HPLC"}}, "note": "Like-named read-outs stand apart in the source and are kept apart here."}
{"compound": "c1ccc(CNCCCNCc2ccccn2)nc1", "note": "[2,3,2-pyridine, (2-pyridylmethyl){3-[(2-pyridylmethyl)amino]propyl}amine]", "values": [{"measurement": "Mean % Survival", "setting": "[1]; 100 uM Streptozotocin + 2.5 uM antidote", "value": 100, "unit": "%"}, {"measurement": "Mean % Survival", "setting": "[1]; 100 uM Streptozotocin + 5 uM antidote", "value": 100, "unit": "%"}, {"measurement": "Mean % Survival", "setting": "[1]; 100 uM Streptozotocin + 20 uM antidote", "value": 100, "unit": "%"}, {"measurement": "Mean % Survival", "setting": "[1]; substance alone 20 uM", "value": 100, "unit": "%"}, {"measurement": "pKa", "setting": "[2]; read-out: pKa(1)", "value": 8.3}, {"measurement": "pKa", "setting": "[2]; read-out: pKa(2)", "value": 7.4}, {"measurement": "logP at 12 h", "setting": "[3]; octanol/water (1:1), 1:1 octanol/water, shaken 12 hours, HPLC, read-out: Log Partition Coefficient Octanol:Water", "value": 2.7}, {"measurement": "lipid water partitioning, in words", "setting": "[3]", "value": "optimal lipid water partitioning"}, {"measurement": "Mean % Survival", "setting": "[4]; 100 uM Rotenone + 2.5 uM antidote", "value": 100, "unit": "%"}, {"measurement": "Mean % Survival", "setting": "[4]; 100 uM Rotenone + 5 uM antidote", "value": 100, "unit": "%"}, {"measurement": "Mean % Survival", "setting": "[4]; 100 uM Rotenone + 20 uM antidote", "value": 100, "unit": "%"}, {"measurement": "Mean % Survival", "setting": "[4]; 100 uM Rotenone + 50 uM antidote", "value": 100, "unit": "%"}, {"measurement": "Mean % Survival", "setting": "[4]; substance alone 50 uM", "value": 100, "unit": "%"}, {"measurement": "Mean % Survival", "setting": "[5]; 0.2 mM Diazoxide + 2.5 uM antidote, T20", "value": 96, "unit": "%"}, {"measurement": "Mean % Survival", "setting": "[5]; 0.2 mM Diazoxide + 2.5 uM antidote, T60", "value": 99, "unit": "%"}, {"measurement": "Mean % Survival", "setting": "[5]; 0.2 mM Diazoxide + 5 uM antidote, T20", "value": 93, "unit": "%"}, {"measurement": "Mean % Survival", "setting": "[5]; 0.2 mM Diazoxide + 5 uM antidote, T60", "value": 100, "unit": "%"}, {"measurement": "Mean % Survival", "setting": "[5]; 0.2 mM Diazoxide + 10 uM antidote, T20", "value": 100, "unit": "%"}, {"measurement": "Mean % Survival", "setting": "[5]; 0.2 mM Diazoxide + 10 uM antidote, T60", "value": 100, "unit": "%"}, {"measurement": "Mean % Survival", "setting": "[5]; 0.2 mM Diazoxide + 20 uM antidote, T20", "value": 100, "unit": "%"}, {"measurement": "Mean % Survival", "setting": "[5]; 0.2 mM Diazoxide + 20 uM antidote, T60", "value": 100, "unit": "%"}, {"measurement": "Mean % Survival", "setting": "[5]; 0.2 mM Diazoxide + 40 uM antidote, T20", "value": 100, "unit": "%"}, {"measurement": "Mean % Survival", "setting": "[5]; 0.2 mM Diazoxide + 40 uM antidote, T60", "value": 70, "unit": "%"}, {"measurement": "Mean % Survival", "setting": "[5]; substance alone 40 uM, T20 (20 minutes)", "value": 100, "unit": "%"}, {"measurement": "Mean % Survival", "setting": "[5]; substance alone 40 uM, T60 (60 minutes)", "value": 100, "unit": "%"}, {"measurement": "Mean % Survival", "setting": "[6]; 2 mM Alloxan + 10 uM antidote", "value": 100, "unit": "%"}, {"measurement": "Mean % Survival", "setting": "[6]; substance alone 10 uM", "value": 100, "unit": "%"}, {"measurement": "Mean % Survival", "setting": "[7]; [12]", "value": 61, "unit": "%"}, {"measurement": "Mean % Survival", "setting": "[7]; [13]", "value": 84, "unit": "%"}, {"measurement": "Mean % Survival", "setting": "[7]; substance alone 5 uM", "value": 99, "unit": "%"}]}
{"compound": "NCCNCCNCCN", "note": "[2,2,2-tetramine, reference compound]", "values": [{"measurement": "pKa(1)", "setting": "[2]", "value": 9.7}, {"measurement": "pKa(2)", "setting": "[2]", "value": 9.1}, {"measurement": "pKa(3)", "setting": "[2]", "value": 6.6}, {"measurement": "pKa(4)", "setting": "[2]", "value": 3.3}, {"measurement": "Log Partition Coefficient Octanol:Water", "setting": "[3]; [14]", "value": 1.6}, {"measurement": "lipid water partitioning, in words", "setting": "[3]", "value": "optimal lipid water partitioning"}, {"measurement": "Mean % Survival", "setting": "[4]; 100 mM Rotenone + 0.5 mM antidote", "value": 67, "unit": "%"}, {"measurement": "Mean % Survival", "setting": "[4]; 100 mM Rotenone + 2 mM antidote", "value": 100, "unit": "%"}, {"measurement": "Mean % Survival", "setting": "[4]; substance alone 2 mM", "value": 100, "unit": "%"}, {"measurement": "half life in vivo", "setting": "[8]", "value": "only a few hours"}, {"measurement": "metabolism and excretion, in words", "setting": "[8]; in vivo", "value": "rapidly metabolized to acetyl 2,2,2-tetramine and rapidly excreted"}]}
{"compound": "NCCNCCCNCCN", "note": "[2,3,2-tetramine, 1,3-bis-[(2′-aminoethyl)-amino]propane]", "values": [{"measurement": "pKa(1)", "setting": "[2]", "value": 10.3}, {"measurement": "pKa(2)", "setting": "[2]", "value": 9.5}, {"measurement": "pKa(3)", "setting": "[2]", "value": 7.3}, {"measurement": "pKa(4)", "setting": "[2]", "value": 6.0}, {"measurement": "Log Partition Coefficient Octanol:Water", "setting": "[3]; [14]", "value": 2.1}, {"measurement": "lipid water partitioning, in words", "setting": "[3]", "value": "optimal lipid water partitioning"}, {"measurement": "Mean % Survival", "setting": "[7]; [12]", "value": 65, "unit": "%"}, {"measurement": "Mean % Survival", "setting": "[7]; [13]", "value": 78, "unit": "%"}, {"measurement": "Mean % Survival", "setting": "[7]; 0.15 mM Diazoxide + 10 uM antidote", "value": 78, "unit": "%"}, {"measurement": "Mean % Survival", "setting": "[7]; 0.15 mM Diazoxide + 20 uM antidote", "value": 75, "unit": "%"}, {"measurement": "Mean % Survival", "setting": "[7]; substance alone 20 uM", "value": 99, "unit": "%"}, {"measurement": "prevention of MPTP induced dopamine loss, in words", "setting": "[9]", "value": "prevent MPTP induced dopamine loss"}, {"measurement": "Mean % Survival", "setting": "[10]", "value": 78, "unit": "%"}, {"measurement": "Mean % Survival", "setting": "[10]; 0.5 mM Paraquat + 1 mM antidote, 60 minutes", "value": 80, "unit": "%"}, {"measurement": "Mean % Survival", "setting": "[10]; substance alone 1 mM, 60 minutes", "value": 100, "unit": "%"}, {"measurement": "Mean % Survival", "setting": "[11]; 1.0 mM Paraquat + 1.0 mM antidote", "value": 100, "unit": "%"}, {"measurement": "Mean % Survival", "setting": "[11]; substance alone 1 mM", "value": 100, "unit": "%"}]}
{"compound": "C[n+]1ccc(-c2cc[n+](C)cc2)cc1", "note": "[Paraquat]", "values": [{"measurement": "Mean % Survival", "setting": "[10]; substance alone 0.5 mM, 60 minutes", "value": 39, "unit": "%"}, {"measurement": "Mean % Survival", "setting": "[11]; substance alone 0.5 mM", "value": 16, "unit": "%"}, {"measurement": "Mean % Survival", "setting": "[11]; substance alone 1 mM", "value": 10, "unit": "%"}]}
